Experimental data: patent publication US9944647B2 (Incyte Corporation, priority 2015, dated 2018)

biological target: LSD-1 enzyme (Homo sapiens (Human), UniProt O60341); assay: LANCE LSD1/KDM1A demethylase assay (LSD1 histone demethylase biochemical assay); conditions: 1 nM LSD-1 enzyme, 1 hour preincubation at 25° C., Biotin-labeled Histone H3 peptide substrate

| SMILES | IC50 |
| --- | --- |
| CN1CCC[C@@H](COc2nc(-c3ccc(C#N)cc3)c(-c3cc(F)c(CO)c(F)c3)c3nccn23)C1 [Example 32, 4-(8-[3,5-difluoro-4-(hydroxymethyl)phenyl]-5-{[(3R)-1-methylpiperidin-3-yl]methoxy}imidazo[1,2-c]pyrimidin-7-yl)benzonitrile] | ≤ 50 nM |
| CN1CCC[C@@H](COc2nc(-c3ccc(C#N)cc3)c(-c3ccc(CN(C)S(C)(=O)=O)c(F)c3)c3nccn23)C1 [Example 84, N-[4-(7-(4-cyanophenyl)-5-{[(3R)-1-methylpiperidin-3-yl]methoxy}imidazo[1,2-c]pyrimidin-8-yl)-2-fluorobenzyl]-N-methylmethanesulfonamide] | 50 to 500 nM |
| CN1CCC[C@@H](COc2nc(-c3ccc(C#N)cc3)c(-c3ccc4c(c3)CC(C(=O)N(C)C)O4)c3nccn23)C1 (stereo partly drawn) [Example 20, 5-(7-(4-cyanophenyl)-5-{[(3R)-1-methylpiperidin-3-yl]methoxy}imidazo[1,2-c]pyrimidin-8-yl)-N,N-dimethyl-2,3-dihydro-1-benzofuran-2-carboxamide] | ≤ 50 nM |
| Cc1ccc(-c2c(-c3ccc(C#N)cc3)nc(N3CCC(N(C)C)CC3)n3ccnc23)c(CO)c1 [Example 111, 4-{5-[4-(dimethylamino)piperidin-1-yl]-8-[2-(hydroxymethyl)-4-methylphenyl]imidazo[1,2-c]pyrimidin-7-yl}benzonitrile] | ≤ 50 nM |
| CN(C)C1CCN(c2nc(-c3ccc(C#N)cc3)c(-c3cc4oc(=O)n(C)c4cc3F)c3nccn23)CC1 [Example 54, 4-[5-[4-(dimethylamino)piperidin-1-yl]-8-(5-fluoro-3-methyl-2-oxo-2,3-dihydro-1,3-benzoxazol-6-yl)imidazo[1,2-c]pyrimidin-7-yl]benzonitrile] | ≤ 50 nM |
| CN(C)C1CCN(c2nc(-c3ccc(C#N)cc3)c(-c3ccc(N4CCCC4=O)nc3)c3nccn23)CC1 [Example 50, 4-{5-[4-(dimethylamino)piperidin-1-yl]-8-[6-(2-oxopyrrolidin-1-yl)pyridin-3-yl]imidazo[1,2-c]pyrimidin-7-yl}benzonitrile] | 50 to 500 nM |
| Cc1cc(-c2c(-c3ccc(C#N)cc3)nc(OC[C@@H]3CCCN(C)C3)n3ccnc23)cc(F)c1CO [Example 30, 4-(8-[3-fluoro-4-(hydroxymethyl)-5-methylphenyl]-5-{[(3R)-1-methylpiperidin-3-yl]methoxy}imidazo[1,2-c]pyrimidin-7-yl)benzonitrile] | ≤ 50 nM |
| CN1CCC[C@@H](COc2nc(-c3ccc(C#N)cc3)c(-c3ccc(CN(C)C(=O)N(C)C)c(F)c3)c3nccn23)C1 [Example 85, N-[4-(7-(4-cyanophenyl)-5-{[(3R)-1-methylpiperidin-3-yl]methoxy}imidazo[1,2-c]pyrimidin-8-yl)-2-fluorobenzyl]-N,N′,N′-trimethylurea] | ≤ 50 nM |
| Cn1c(=O)oc2cc(-c3c(-c4ccc(C#N)cc4)nc(OC[C@@H]4CCCN(CCC#N)C4)n4ccnc34)ccc21 [Example 83, 4-[5-{[(3R)-1-(2-cyanoethyl)piperidin-3-yl]methoxy}-8-(3-methyl-2-oxo-2,3-dihydro-1,3-benzoxazol-6-yl)imidazo[1,2-c]pyrimidin-7-yl]benzonitrile] | ≤ 50 nM |
| CCOc1ccc(-c2c(-c3ccc(C#N)cc3)nc(N3CCC(N(C)C)CC3)n3ccnc23)cn1 [Example 117, 4-[5-[4-(dimethylamino)piperidin-1-yl]-8-(6-ethoxypyridin-3-yl)imidazo[1,2-c]pyrimidin-7-yl]benzonitrile] | ≤ 50 nM |
| C[C@@H](O)CN1CCC[C@@H](COc2nc(-c3ccc(C#N)cc3)c(-c3ccc4c(c3)oc(=O)n4C)c3nccn23)C1 [Example 133, 4-[5-({(3R)-1-[(2R)-2-hydroxypropyl]piperidin-3-yl}methoxy)-8-(3-methyl-2-oxo-2,3-dihydro-1,3-benzoxazol-6-yl)imidazo[1,2-c]pyrimidin-7-yl]benzonitrile] | 50 to 500 nM |
